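Grown in 96-well plates, cells were treated for 48 hours with each compound at five concentrations. Insufficient inhibition: endpoint recorded as highest concentration tested. Definition used: TGI = concentration required for complete inhibition of growth.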

Broadly, the TGI is the concentration at which net growth stops. The low end stands for more potent growth arrest, the high end for less potent growth arrest.

One experiment relates to 786-0 renal. Kind of experiment: DTP human tumour cell line panel, 48 h.
Take `O=C(CCC(=O)c1ccc(Cl)cc1)NO`: the TGI is more than 100 µM.

Take `O=C(O)CSc1ccc([N+](=O)[O-])cc1[N+](=O)[O-]`: the concentration for total growth inhibition (TGI) is more than 100 µM.

As to `Cc1coc2c1CC1(C)C(CCC(O)C1C)C2` (stereo unspecified), the concentration for total growth inhibition (TGI) was more than 100 µM.

Regarding `C=C(Br)C(C)(Cl)CCC(Br)C(C)(C)Cl` (stereo unspecified), the TGI was 39.9 µM.

In another experiment the test system is A498 renal. Kind of experiment: DTP human tumour cell line panel, 48 h.
In turn, `O=C(CCC(=O)c1ccc(Cl)cc1)NO` registered a total growth inhibition concentration (TGI) of more than 100 µM.

In turn, `O=C(O)CSc1ccc([N+](=O)[O-])cc1[N+](=O)[O-]` gave a TGI of more than 100 µM.

`Cc1coc2c1CC1(C)C(CCC(O)C1C)C2` (stereo unspecified) gave a TGI of more than 100 µM.

Molecule `C=C(Br)C(C)(Cl)CCC(Br)C(C)(C)Cl` (stereo unspecified) gave a TGI of more than 100 µM.

The subject of the next experiment is A549 NSCLC. Kind of experiment: DTP human tumour cell line panel, 48 h.
As to `O=C(CCC(=O)c1ccc(Cl)cc1)NO`, the total growth inhibition concentration (TGI) is more than 100 µM.

`O=C(O)CSc1ccc([N+](=O)[O-])cc1[N+](=O)[O-]` registered a TGI of more than 100 µM.

Take `Cc1coc2c1CC1(C)C(CCC(O)C1C)C2` (stereo unspecified): the total growth inhibition concentration (TGI) was more than 100 µM.

Take `C=C(Br)C(C)(Cl)CCC(Br)C(C)(C)Cl` (stereo unspecified): the TGI is more than 100 µM.

In the next experiment the test system is ACHN renal. Kind of experiment: DTP human tumour cell line panel, 48 h.
`O=C(CCC(=O)c1ccc(Cl)cc1)NO` returned a TGI of more than 100 µM.

`O=C(O)CSc1ccc([N+](=O)[O-])cc1[N+](=O)[O-]` yielded a TGI of more than 100 µM.

`Cc1coc2c1CC1(C)C(CCC(O)C1C)C2` (stereo unspecified) showed a total growth inhibition concentration (TGI) of more than 100 µM.

In the case of `C=C(Br)C(C)(Cl)CCC(Br)C(C)(C)Cl` (stereo unspecified), the TGI came out at 75 µM.

A further experiment has as its system BT-549 breast. Nature of the experiment: DTP human tumour cell line panel, 48 h.
The molecule `O=C(CCC(=O)c1ccc(Cl)cc1)NO` displayed a TGI of more than 100 µM.

With `O=C(O)CSc1ccc([N+](=O)[O-])cc1[N+](=O)[O-]`, the concentration for total growth inhibition (TGI) is more than 100 µM.

Molecule `Cc1coc2c1CC1(C)C(CCC(O)C1C)C2` (stereo unspecified) yielded a TGI of more than 100 µM.

Take `C=C(Br)C(C)(Cl)CCC(Br)C(C)(C)Cl` (stereo unspecified): the TGI was more than 100 µM.

For another experiment, the system named is CAKI-1 renal. Kind of experiment: DTP human tumour cell line panel, 48 h.
In turn, `O=C(CCC(=O)c1ccc(Cl)cc1)NO` returned a TGI of more than 100 µM.

Turning to `O=C(O)CSc1ccc([N+](=O)[O-])cc1[N+](=O)[O-]`, the concentration for total growth inhibition (TGI) was more than 100 µM.

As for `Cc1coc2c1CC1(C)C(CCC(O)C1C)C2` (stereo unspecified), the concentration for total growth inhibition (TGI) was more than 100 µM.

Regarding `C=C(Br)C(C)(Cl)CCC(Br)C(C)(C)Cl` (stereo unspecified), the concentration for total growth inhibition (TGI) was more than 100 µM.

The next experiment has as its system CCRF-CEM leukemia. Kind of experiment: DTP human tumour cell line panel, 48 h.
Molecule `O=C(CCC(=O)c1ccc(Cl)cc1)NO` displayed a TGI of more than 100 µM.

As for `Cc1coc2c1CC1(C)C(CCC(O)C1C)C2` (stereo unspecified), the concentration for total growth inhibition (TGI) is more than 100 µM.

Regarding `C=C(Br)C(C)(Cl)CCC(Br)C(C)(C)Cl` (stereo unspecified), the TGI is 44.5 µM.

For another experiment, the system named is COLO 205 colon. Kind of experiment: DTP human tumour cell line panel, 48 h.
Consider `O=C(CCC(=O)c1ccc(Cl)cc1)NO`, for which the TGI is more than 100 µM.

`Cc1coc2c1CC1(C)C(CCC(O)C1C)C2` (stereo unspecified) returned a concentration for total growth inhibition (TGI) of more than 100 µM.

Regarding `C=C(Br)C(C)(Cl)CCC(Br)C(C)(C)Cl` (stereo unspecified), the TGI amounted to 64.6 µM.

The next experiment concerns DU-145 prostate. Nature of the experiment: DTP human tumour cell line panel, 48 h.
With `O=C(CCC(=O)c1ccc(Cl)cc1)NO`, the TGI was more than 100 µM.

`O=C(O)CSc1ccc([N+](=O)[O-])cc1[N+](=O)[O-]` showed a total growth inhibition concentration (TGI) of more than 100 µM.

On to `Cc1coc2c1CC1(C)C(CCC(O)C1C)C2` (stereo unspecified), for which the TGI is more than 100 µM.

`C=C(Br)C(C)(Cl)CCC(Br)C(C)(C)Cl` (stereo unspecified): the TGI was more than 100 µM.

The subject of a further experiment is EKVX NSCLC. Kind of experiment: DTP human tumour cell line panel, 48 h.
On to `O=C(CCC(=O)c1ccc(Cl)cc1)NO`, for which the total growth inhibition concentration (TGI) was more than 100 µM.

`O=C(O)CSc1ccc([N+](=O)[O-])cc1[N+](=O)[O-]` returned a total growth inhibition concentration (TGI) of more than 100 µM.

As to `Cc1coc2c1CC1(C)C(CCC(O)C1C)C2` (stereo unspecified), the concentration for total growth inhibition (TGI) was more than 100 µM.

Regarding `C=C(Br)C(C)(Cl)CCC(Br)C(C)(C)Cl` (stereo unspecified), the TGI was more than 100 µM.

The test system of a further experiment is HCC-2998 colon. Kind of experiment: DTP human tumour cell line panel, 48 h.
Consider `O=C(CCC(=O)c1ccc(Cl)cc1)NO`, for which the total growth inhibition concentration (TGI) is more than 100 µM.

`O=C(O)CSc1ccc([N+](=O)[O-])cc1[N+](=O)[O-]`: the total growth inhibition concentration (TGI) was more than 100 µM.

`Cc1coc2c1CC1(C)C(CCC(O)C1C)C2` (stereo unspecified): the TGI is more than 100 µM.

Molecule `C=C(Br)C(C)(Cl)CCC(Br)C(C)(C)Cl` (stereo unspecified) displayed a concentration for total growth inhibition (TGI) of more than 100 µM.

Another experiment deals with HCT-116 colon. Nature of the experiment: DTP human tumour cell line panel, 48 h.
As for `O=C(CCC(=O)c1ccc(Cl)cc1)NO`, the TGI was more than 100 µM.

The molecule `O=C(O)CSc1ccc([N+](=O)[O-])cc1[N+](=O)[O-]` came in with a TGI of more than 100 µM.

Turning to `Cc1coc2c1CC1(C)C(CCC(O)C1C)C2` (stereo unspecified), the concentration for total growth inhibition (TGI) is more than 100 µM.

`C=C(Br)C(C)(Cl)CCC(Br)C(C)(C)Cl` (stereo unspecified) came in with a TGI of more than 100 µM.

The next experiment relates to HCT-15 colon. Nature of the experiment: DTP human tumour cell line panel, 48 h.
For `O=C(CCC(=O)c1ccc(Cl)cc1)NO`, the TGI is more than 100 µM.

Regarding `O=C(O)CSc1ccc([N+](=O)[O-])cc1[N+](=O)[O-]`, the TGI is more than 100 µM.

The molecule `Cc1coc2c1CC1(C)C(CCC(O)C1C)C2` (stereo unspecified) showed a concentration for total growth inhibition (TGI) of more than 100 µM.

Regarding `C=C(Br)C(C)(Cl)CCC(Br)C(C)(C)Cl` (stereo unspecified), the total growth inhibition concentration (TGI) is more than 100 µM.

A further experiment deals with HL-60(TB) leukemia. Nature of the experiment: DTP human tumour cell line panel, 48 h.
In turn, `O=C(CCC(=O)c1ccc(Cl)cc1)NO` showed a total growth inhibition concentration (TGI) of more than 100 µM.

On to `O=C(O)CSc1ccc([N+](=O)[O-])cc1[N+](=O)[O-]`, for which the TGI was more than 100 µM.

`Cc1coc2c1CC1(C)C(CCC(O)C1C)C2` (stereo unspecified) came in with a TGI of more than 100 µM.

Molecule `C=C(Br)C(C)(Cl)CCC(Br)C(C)(C)Cl` (stereo unspecified) displayed a concentration for total growth inhibition (TGI) of 80.6 µM.

In the next experiment the test system is HOP-62 NSCLC. Nature of the experiment: DTP human tumour cell line panel, 48 h.
With `O=C(CCC(=O)c1ccc(Cl)cc1)NO`, the TGI was more than 100 µM.

Turning to `O=C(O)CSc1ccc([N+](=O)[O-])cc1[N+](=O)[O-]`, the TGI was more than 100 µM.
